Data taken from US20150368248A1, “2-SUBSTITUTED-6-BIARYLMETHYLAMINO-9-CYCLOPENTYL-9H-PURINE DERIVATIVES, USE THEREOF AS MEDICAMENTS, AND PHARMACEUTICAL COMPOSITIONS” (UNIVERZITA PALACKEHO V OLOMOUCI, priority 2013, published 2015).
pIC50: −log10 of the molar value.

Tests used:
[1] = tested on: Hep3B; experiment: MTT cytotoxicity assay (Example 30); assay type: cell-based, human; settings: Homo sapiens, Hep3B, 72 h; MTT, three days after drug addition; read-out: Inhibitory concentration IC50, Hep3B
[2] = target: T1, CDK1/cyclin B (Homo sapiens, UniProt P06493); experiment: Kinase inhibition assay, recombinant kinase, [γ-33P]ATP; assay type: biochemical; settings: read-out: Kinase inhibition IC50, CDK1
T1 construct: made in house; host or cells: Sf9 insect cells (baculovirus)
T1 sequence (P06493 whole entry, species assumed): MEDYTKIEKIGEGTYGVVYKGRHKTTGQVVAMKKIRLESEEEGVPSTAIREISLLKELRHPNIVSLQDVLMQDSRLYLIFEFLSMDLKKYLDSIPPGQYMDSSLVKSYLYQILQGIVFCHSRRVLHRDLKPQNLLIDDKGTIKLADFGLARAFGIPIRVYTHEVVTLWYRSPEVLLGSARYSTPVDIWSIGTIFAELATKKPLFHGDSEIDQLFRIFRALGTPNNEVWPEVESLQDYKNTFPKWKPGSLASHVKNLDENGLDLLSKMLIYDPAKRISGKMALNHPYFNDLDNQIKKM
T1 sequence (P14635 whole entry partner, species assumed): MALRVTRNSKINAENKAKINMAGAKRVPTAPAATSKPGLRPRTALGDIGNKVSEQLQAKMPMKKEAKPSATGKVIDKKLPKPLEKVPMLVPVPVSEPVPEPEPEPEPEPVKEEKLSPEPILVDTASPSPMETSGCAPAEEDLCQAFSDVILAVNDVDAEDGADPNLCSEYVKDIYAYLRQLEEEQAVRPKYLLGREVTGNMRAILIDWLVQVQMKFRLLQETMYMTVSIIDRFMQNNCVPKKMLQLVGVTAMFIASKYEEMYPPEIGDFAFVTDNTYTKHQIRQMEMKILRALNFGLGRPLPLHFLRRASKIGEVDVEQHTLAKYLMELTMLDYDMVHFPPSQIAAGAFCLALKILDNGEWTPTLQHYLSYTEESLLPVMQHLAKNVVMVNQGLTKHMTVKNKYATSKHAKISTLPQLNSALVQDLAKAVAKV
Method: CDK2/Cyclin E kinase was produced in Sf9 insect cells via baculoviral infection and purified on a NiNTA column (Qiagen). CDK5/p35, CDK7Cyclin H/MAT1 and CDK9/Cyclin T1 was purchased from ProQinase GmbH. […] The reactions were stopped by adding 5 μL of 3% aq H3PO4. Aliquots were spotted onto P-81 phosphocellulose (Whatman), washed 3× with 0.5% aq H3PO4 and finally air-dried.
CDK1/cyclin B and CDK2/cyclin E kinases were produced in Sf9 insect cells via baculoviral infection, while CDK5/p35, CDK7/cyclin H/MAT1, and CDK9/cyclin T1 were purchased from ProQinase (Freiburg, Germany) and assayed as described previously (35). The kinase reactions were assayed with 1 mg/ml histone H1 (for CDK2 and CDK5) or (YSPTSPS)2KK peptide (for CDK7 and CDK9) in the presence of 15/0.15/1.5/1.5 […] ATP (for CDK2/CDK5/CDK7CDK9), […] [γ-^33P]ATP and of the test compound in a final volume of […]. The reaction buffer contained 60 mM HEPES-NaOH, pH 7.5, 3 mM MgCl2, 3 mM MnCl2, 3 mM Na-orthovanadate, 1.2 mM DTT, 2.5 mg/50 ml PEG20.000. The reactions were stopped by adding […] of 3% H3PO4. Aliquots were spotted onto P-81 phosphocellulose (Whatman, GE Healthcare Biosciences, Pittsburgh, USA), washed 3 times with 0.5% H3PO4 and finally air-dried. Kinase inhibition was quantified using a FLA-7000 digital image analyzer (Fujifilm, Tokyo, Japan).

[3] = tested on: caspase-3/7 activity in Hep3B cell line; experiment: One-step cellular caspase-3/7 activity assay; assay type: cell-based, human; settings: 24 hours, 0 nM = 1.00
Outline: (§1)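 Hep3B or PLC/PRF/5 cells, plated overnight, were exposed to compounds for 24 h. Lysis buffer containing 150 μM Ac-DEVD-AMC substrate was added, and plates were incubated at 37° C. Caspase-3/7 activity was read as AMC fluorescence (ex 346/em 442 nm) after 6 h.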

[4] = tested on: caspase-3/7 activity in PLC/PRF/5 cell line; experiment: One-step cellular caspase-3/7 activity assay; assay type: cell-based, human; settings: 24 hours incubation, relative to 0 nM = 1.00
Outline: as §1

[5] = tested on: p53-regulated transcription in Arn8 cells; experiment: p53-dependent transcriptional activity, β-galactosidase reporter; assay type: cell-based; settings: 24 h incubation
Outline: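 Arn8 melanoma cells stably carrying the p53-responsive pRGCAfoslacZ reporter, exposed to compounds for 24 h. Cells permeabilised with 0.3% Triton X-100 for 15 min, then given 80 μM 4-methylumbelliferyl-β-D-galactopyranoside. β-Galactosidase product fluorescence read after 1 h at 355/460 nm.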

SMILES | pIC50 [1] | melting point | pIC50 [2] | Relative caspase-3/7 activity in Hep3B cell line ([3]; 200 nM) | Relative caspase-3/7 activity in Hep3B cell line ([3]; 400 nM) | Relative caspase-3/7 activity in Hep3B cell line ([3]; 800 nM) | Relative caspase-3/7 activity in Hep3B cell line ([3]; 1600 nM) | Relative caspase-3/7 activity in PLC/PRF/5 cell line ([4]; compound concentration 40 nM) | Relative caspase-3/7 activity in PLC/PRF/5 cell line ([4]; compound concentration 80 nM) | Relative caspase-3/7 activity in PLC/PRF/5 cell line ([4]; compound concentration 160 nM) | Relative caspase-3/7 activity in PLC/PRF/5 cell line ([4]; compound concentration 320 nM) | Relative caspase-3/7 activity in PLC/PRF/5 cell line ([4]; compound concentration 640 nM) | Relative caspase-3/7 activity in PLC/PRF/5 cell line ([4]; compound concentration 1280 nM) | Concentration of maximum activation [5] | Relative caspase-3/7 activity in Hep3B cell line ([3]; 100 nM)
Nc1ccccc1-c1ccc(CNc2nc(NC3CCC(N)CC3)nc3c2ncn3C2CCCC2)cc1 (stereo not shown) [BP32, N^2-(4-amino-cyclohexyl)-9-cyclopentyl-N^6-(2′-amino-biphenyl-4-ylmethyl)-9H-purine-2,6-diamine] | 6.40 | 168 to 170 °C | 6.82 | 0.70 | 1.15 | 2.48 | 7.53 | 0.62 | 1.00 | 0.69 | 2.01 | >5.00 | >5.00 | 895 nM | 
NC1CCC(Nc2nc(NCc3ccc(-c4ccoc4)cc3)c3ncn(C4CCCC4)c3n2)CC1 (stereo not shown) [BP13, N^2-(4-amino-cyclohexyl)-9-cyclopentyl-N^6-(4-furan-3-yl-benzyl)-9H-purine-2,6-diamine] | 6.29 | 154 to 156 °C | 6.69 | 0.95 | 1.71 | 5.65 | 7.81 | 0.99 | 1.37 | 1.72 | 2.28 | >5.00 | >5.00 | 970 nM | 
COc1ccccc1-c1ccc(CNc2nc(NC3CCC(N)CC3)nc3c2ncn3C2CCCC2)cc1 (stereo not shown) [BP16, N^2-(4-amino-cyclohexyl)-9-cyclopentyl-N^6-(2′-methoxy-biphenyl-4-ylmethyl)-9H-purine-2,6-diamine] | 6.27 | 178 to 180 °C | 6.52 | 0.93 | 1.26 | 2.82 | 7.07 | 1.01 | 0.73 | 1.15 | 2.42 | >5.00 | >5.00 | 943 nM | 
NC1CCC(Nc2nc(NCc3ccc(-c4ccoc4)nc3)c3ncn(C4CCCC4)c3n2)CC1 (stereo not shown) [BP36, N^2-(4-amino-cyclohexyl)-9-cyclopentyl-N^6-(6-furan-3-yl-pyridin-3-ylmethyl)-9H-purine-2,6-diamine] | 6.89 | 165 to 167 °C | 7.18 | 6.19 | 6.55 | 9.80 | 9.75 | 2.34 | >5.00 | >5.00 | >5.00 | >5.00 | >5.00 | 125 nM | 2.67
NC1CCC(Nc2nc(NCc3ccc(-c4ccccc4O)nc3)c3ncn(C4CCCC4)c3n2)CC1 (stereo not shown) [BP20, N^2-(4-amino-cyclohexyl)-9-cyclopentyl-N^6-[6-(2-hydroxy-phenyl)-pyridin-3-ylmethyl]-9H-purine-2,6-diamine] | 7.49 | 202 to 203 °C | 7.33 | 5.37 | 8.25 | 9.63 | 9.95 | 3.15 | 2.66 | >5.00 | >5.00 | >5.00 | >5.00 | 150 nM | 4.42
OC1CCC(Nc2nc(NCc3ccc(-c4ccco4)nc3)c3ncn(C4CCCC4)c3n2)CC1 (stereo not shown) [BP21, 4-{9-cyclopentyl-6-[(6-furan-2-yl-pyridin-3-ylmethyl)-amino]-9H-purine-2-ylamino}-cyklohexanol] | 6.31 | 164 to 166 °C | 6.67 | 1.15 | 1.18 | 4.36 | 7.19 | 0.69 | 1.20 | 2.19 | 3.39 | >5.00 | >5.00 | 918 nM | 
NC1CCC(Nc2nc(NCc3ccc(-c4cccc(F)c4)cc3)c3ncn(C4CCCC4)c3n2)CC1 (stereo not shown) [BP12, N^2-(4-amino-cyclohexyl)-9-cyclopentyl-N^6-(3′-fluoro-biphenyl-4-ylmethyl)-9H-purine-2,6-diamine] | 6.38 | 146 to 148 °C | 6.37 | 1.12 | 4.20 | 7.04 | 9.85 | 0.93 | 1.27 | 3.10 | 2.95 | >5.00 | >5.00 | 986 nM | 
